Experimental findings from patent publication US20120021014A1, “CORROSION CURRENT-GENERATING METAL PARTICULATES AND USE THEREOF” (priority 2010, published 2012) are described below.

Test [1] deals with male albino Wistar rats (SPRAGUE DAWLEY). The test is described as follows: CFA-induced ankle arthritis, incapacitance test (weight bearing). Type of test: in vivo. The following applies: positive control, 3 mg/kg once daily prior to the functional measurements.
Test [2] has the same test system. The test is described as follows: CFA-induced ankle arthritis, joint swelling (paw volume difference). The note with it: positive control, 3 mg/kg once daily; CFA-induced paw vs control paw. In kind it is in vivo.
Test [3] relates to human keratinocyte cells. The test is described as follows: Hydrogen peroxide production in human keratinocytes (CM-H2DCFDA fluorescence). Type of test: cell-based. The note with it: 0.03% positive control; 60 Minutes.
Method: The cells were treated with different amounts of the magnesium powder.
The subject of test [4] is Albino male CD-1 mice. The experiment in a line: Oxazolone immune cell-mediated skin inflammation model (ear biopsy weight). Type of test: in vivo. The following applies: 1 mg/ml positive control, topical to ear; 24 hours.

The structures appear in SMILES notation.

Regarding `CN1CC[C@]23c4c5ccc(O)c4O[C@H]2[C@@H](O)C=C[C@H]3[C@H]1C5.O=S(=O)(O)O` [Morphine, morphine sulphate], the “Deficiency Improvement, MEAN IMPROVEMENT (weight bearing percent minus Day 4 baseline, averaged over all time points)” value in test [1] worked out at 16.85. For the same compound, the “MEAN PAW VOLUME DIFFERENCE” value in test [2] was found to be 1.38 mL.
In the case of `OO` [H2O2, hydrogen peroxide], the “Hydrogen peroxide production (fluorescence 485 nm excitation/530 nm emission)” value in test [3] is 150.11 ± 2.9.
With `C[C@]12CCC(=O)C=C1CC[C@@H]1[C@@H]2[C@@H](O)C[C@@]2(C)[C@H]1CC[C@]2(O)C(=O)CO` [Hydrocortisone, hydrocortisone], the “Percent Inhibition of Skin Inflammation” value in test [4] is recorded as 70.3% ± 6.6%.
